# Reference: patent US20060069132A1, “Azolecarboxamide herbicides” (priority 2004, published 2006)
# Columns and labels:
# bipinnate beggarticks = test: Test E pre-/postemergence herbicide test; format: in vivo, Bidens bipinnata; conditions: Preemergence
# Excerpt: (§1) Seeds of plant species selected from bipinnate beggarticks (Bidens bipinnata L.), hairy beggarticks (Bidens radiata Thuill.), bermudagrass (Cynodon dactylon (L.) Pers.), Surinam grass (Urochloa decumbens (Staph) R. D. Webster, previously named Brachiaria decumbens Stapf), large crabgrass (Digitaria sanguinalis (L.) Scop.), green foxtail (Setaria viridis (L.) P. Beauv.), goosegrass (Eleusine indica (L.) Gaertn.), johnsongrass (Sorghum halepense (L.) Pers.), kochia (Kochia scoparia (L.) Schrad.), pitted morningglory (Ipomoea lacunosa L.), purple nutsedge (Cyperus rotundus L.), common ragweed (Ambrosia elatior L.), mustard (Brassica nigra (L.) W. D. J. Koch), guineagrass (Panicum maximum Jacq.), dallisgrass (Paspalum dilatatum Poir.), barnyardgrass (Echinochloa crus-galli (L). P. Beauv.), southern sandbur (Cenchrus echinatus L.), common sowthistle (Sonchus oleraceous L.), prickly sida (Sida spinosa L.), Italian ryegrass (Lolium multiflorum Lam.), common purslane (Portulaca oleracea L.), broadleaf signalgrass (Brachiaria platyphylla (Griseb.) Nash), common groundsel (Senecio vulgaris L.), common chickweed (Stellaria media (L.) Vill/Cyr.), tropical spiderwort (Commelina benghalensis L.), annual bluegrass (Poa annua L.), downy bromegrass (Bromus tectorum L.), itchgrass (Rottboellia cochinchinensis (L.) L.f.), quackgrass (Elytrigia repens (L.) Nevski), Canada horseweed (Erigeron Canadensis L.), field bindweed (Convolvulus arvensis L.), spotted spurge (Euphorbia maculata L.), common mallow (Malva sylvestris (=s silvestris) L.), and Russian thistle (Salsola kali L. ssp. Ruthenica (Iljin) Soo) were planted and treated preemergence with test chemicals formulated in a non-phytotoxic solvent mixture which included a surfactant.
# (§2) At the same time, plants selected from these weed species were treated with postemergence applications of some of the test chemicals formulated in the same manner. Plants ranged in height from 2 to 18 cm (1- to 4-leaf stage) for postemergence treatments. Treated plants and controls were maintained in a greenhouse for 12 to 14 days, after which time all species were compared to controls and visually evaluated. Plant response ratings, summarized in Table E, are based on a scale of 0 to 100 where 0 is no effect and 100 is complete control. A dash (-) response means no test result.
# kochia = test: Test E pre-/postemergence herbicide test; format: in vivo, Kochia scoparia
# Excerpt: as §1, §2
# junglerice = test: Test D flooded paddy test; format: in vivo, Echinochloa colona; conditions: 21 days, scale 0 to 100
# Excerpt: (§3) Three plastic pots (ca. 16-cm diameter) per rate were partially filled with sterilized Tama silt loam soil comprising a 35:50:15 ratio of sand, silt and clay and 2.6% organic matter. Separate plantings for each of the three pots were as follows. Seeds from the U.S. of ducksalad (Heteranthera limosa (Sw.) Willd.), smallflower umbrella sedge (Cyperus difformis L.) and purple redstem (Ammannia coccinea Rottb.), were planted into one 16-cm pot for each rate. Seeds from the U.S. of rice flatsedge (Cyperus iria L.), bearded sprangletop (Leptochloa fascicularis (Lam.) Gray), one stand of 9 or 10 water seeded rice seedlings (Oryza sativa L. cv. ‘Japonica—M202’), and one stand of 6 transplanted rice seedlings (Oryza sativa L. cv. ‘Japonica—M202’) were planted into one 16-cm pot for each rate. Seeds from the U.S. of barnyardgrass (Echinochloa crus-galli (L.) Beauv.), late watergrass (Echinochloa oryzicola Vasinger), early watergrass (Echinochloa oryzoides (Ard.) Fritsch) and junglerice (Echinochloa colona (L.) Link) were planted into one 16-cm pot for each rate. Plantings were sequential so that crop and weed species were at the 2.0 to 2.5-leaf stage at time of treatment.
# (§4) Potted plants were grown in a greenhouse with day/night temperature settings of 29.5/26.7° C., and supplemental balanced lighting was provided to maintain a 16-hour photoperiod. Test pots were maintained in the greenhouse until test completion.
# (§5) At time of treatment, test pots were flooded to 3 cm above the soil surface, treated by application of test compounds directly to the paddy water, and then maintained at that water depth for the duration of the test. Effects of treatments on rice and weeds were visually evaluated by comparison to untreated controls after 21 days. Plant response ratings are reported on a 0 to 100 scale; where 0 is no effect and 100 is complete control. A dash (-) response means no test result.
# bearded sprangletop = test: Test D flooded paddy test; format: in vivo, Leptochloa fascicularis; conditions: 21 days, scale 0 to 100
# Excerpt: as §3, §4, §5
# early watergrass = test: Test D flooded paddy test; format: in vivo, Echinochloa oryzoides; conditions: 21 days, scale 0 to 100
# Excerpt: as §3, §4, §5
# [1] = tested on: smallflower umbrella sedge; test: Test D flooded paddy test; format: in vivo, Cyperus difformis; conditions: 21 days, scale 0 to 100
# Excerpt: as §3, §4, §5
# rice flatsedge = test: Test D flooded paddy test; format: in vivo, Cyperus iria; conditions: 21 days, scale 0 to 100
# Excerpt: as §3, §4, §5
# late watergrass = test: Test D flooded paddy test; format: in vivo, Echinochloa oryzicola; conditions: 21 days, scale 0 to 100
# Excerpt: as §3, §4, §5
# ducksalad = test: Test D flooded paddy test; format: in vivo, Heteranthera limosa; conditions: 21 days, scale 0 to 100
# Excerpt: as §3, §4, §5
# [2] = tested on: water seeded rice seedlings; test: Test D flooded paddy test; format: in vivo, Oryza sativa; conditions: 21 days, scale 0 to 100
# Excerpt: as §3, §4, §5
# [3] = tested on: transplanted rice seedlings; test: Test D flooded paddy test; format: in vivo, Oryza sativa; conditions: 21 days, scale 0 to 100
# Excerpt: as §3, §4, §5
# [4] = Preemergence, 62 g ai/ha, scale 0 to 100
# [5] = Preemergence, 250 g ai/ha, scale 0 (no effect) to 100 (complete control)
# [6] = Preemergence, 500 g ai/ha, scale 0 (no effect) to 100 (complete control)
smiles,measurement,setting,value
CCc1nn(C(C)(C)CC)nc1C(=O)Nc1cccc(C(=O)N(C)C)c1 [Compound 372],"Plant response rating, Beggarticks, Bip.","bipinnate beggarticks; 62 g ai/ha, scale 0 to 100",10
same,"Plant response rating, Beggarticks, Bip.","bipinnate beggarticks; 125 g ai/ha, scale 0 to 100",40
same,"Plant response rating, Beggarticks, Bip.","bipinnate beggarticks; 250 g ai/ha, scale 0 (no effect) to 100 (complete control)",50
same,"Plant response rating, Beggarticks, Bip.","bipinnate beggarticks; 500 g ai/ha, scale 0 (no effect) to 100 (complete control)",60
"CCn1nc(C(C)(C)C)cc1C(=O)Nc1cc(C(=O)N(C)C)ccc1F [Compound 6, N-[5-[(dimethylamino)carbonyl]-2-fluorophenyl]-3-(1,1-dimethylethyl)-1-ethyl-1H-pyrazole-5-carboxamide]","Plant response rating, Kochia","kochia; Postemergence, 500 g ai/ha, scale 0 to 100",100
same,"Plant response rating, Kochia","kochia; Postemergence, 250 g ai/ha, scale 0 to 100",100
same,"Plant response rating, Kochia",kochia; [4],100
same,"Plant response rating, Kochia","kochia; Preemergence, 125 g ai/ha, scale 0 (no effect) to 100 (complete control)",100
same,"Plant response rating, Kochia",kochia; [5],100
same,"Plant response rating, Kochia",kochia; [6],100
same,"Plant response rating, Kochia","kochia; postemergence, 125 g ai/ha, scale 0 to 100",100
same,"Plant response rating, Kochia","kochia; postemergence, 62 g ai/ha, scale 0 to 100",100
CCc1nc(C(C)(C)C)sc1C(=O)Nc1cccc(C(=O)NCC2CC2)n1 [Compound 215],"Plant response rating, Junglerice",junglerice; 125 g ai/ha,0
same,"Plant response rating, Junglerice",junglerice; 250 g ai/ha,0
same,"Plant response rating, Junglerice",junglerice; 500 g ai/ha,20
same,"Plant response rating, Junglerice",junglerice; 750 g ai/ha,25
same,"Plant response rating, Junglerice",junglerice; 1000 g ai/ha,25
same,"Plant response rating, Sprangletop, Bearded",bearded sprangletop; 125 g ai/ha,20
same,"Plant response rating, Sprangletop, Bearded",bearded sprangletop; 250 g ai/ha,20
same,"Plant response rating, Sprangletop, Bearded",bearded sprangletop; 500 g ai/ha,20
same,"Plant response rating, Sprangletop, Bearded",bearded sprangletop; 750 g ai/ha,20
same,"Plant response rating, Sprangletop, Bearded",bearded sprangletop; 1000 g ai/ha,20
same,"Plant response rating, Watergrass, Early",early watergrass; 125 g ai/ha,0
same,"Plant response rating, Watergrass, Early",early watergrass; 250 g ai/ha,0
same,"Plant response rating, Watergrass, Early",early watergrass; 500 g ai/ha,20
same,"Plant response rating, Watergrass, Early",early watergrass; 750 g ai/ha,25
same,"Plant response rating, Watergrass, Early",early watergrass; 1000 g ai/ha,40
same,"Plant response rating, Sedge, Umbrella",[1]; 125 g ai/ha,20
same,"Plant response rating, Sedge, Umbrella",[1]; 250 g ai/ha,95
same,"Plant response rating, Sedge, Umbrella",[1]; 500 g ai/ha,95
same,"Plant response rating, Sedge, Umbrella",[1]; 750 g ai/ha,95
same,"Plant response rating, Sedge, Umbrella",[1]; 1000 g ai/ha,100
same,"Plant response rating, Flatsedge, Rice",rice flatsedge; 125 g ai/ha,0
same,"Plant response rating, Flatsedge, Rice",rice flatsedge; 250 g ai/ha,60
same,"Plant response rating, Flatsedge, Rice",rice flatsedge; 500 g ai/ha,60
same,"Plant response rating, Flatsedge, Rice",rice flatsedge; 750 g ai/ha,80
same,"Plant response rating, Flatsedge, Rice",rice flatsedge; 1000 g ai/ha,90
same,"Plant response rating, Watergrass, Late",late watergrass; 125 g ai/ha,0
same,"Plant response rating, Watergrass, Late",late watergrass; 250 g ai/ha,0
same,"Plant response rating, Watergrass, Late",late watergrass; 500 g ai/ha,20
same,"Plant response rating, Watergrass, Late",late watergrass; 750 g ai/ha,20
same,"Plant response rating, Watergrass, Late",late watergrass; 1000 g ai/ha,20
same,"Plant response rating, Ducksalad",ducksalad; 125 g ai/ha,0
same,"Plant response rating, Ducksalad",ducksalad; 250 g ai/ha,0
same,"Plant response rating, Ducksalad",ducksalad; 500 g ai/ha,20
same,"Plant response rating, Ducksalad",ducksalad; 750 g ai/ha,20
same,"Plant response rating, Ducksalad",ducksalad; 1000 g ai/ha,75
same,"Plant response rating, Rice, Water Seeded",[2]; 125 g ai/ha,20
same,"Plant response rating, Rice, Water Seeded",[2]; 250 g ai/ha,35
same,"Plant response rating, Rice, Water Seeded",[2]; 500 g ai/ha,45
same,"Plant response rating, Rice, Water Seeded",[2]; 750 g ai/ha,45
same,"Plant response rating, Rice, Water Seeded",[2]; 1000 g ai/ha,45
same,"Plant response rating, Rice, Transplanted",[3]; 125 g ai/ha,0
same,"Plant response rating, Rice, Transplanted",[3]; 250 g ai/ha,10
same,"Plant response rating, Rice, Transplanted",[3]; 500 g ai/ha,20
same,"Plant response rating, Rice, Transplanted",[3]; 750 g ai/ha,20
same,"Plant response rating, Rice, Transplanted",[3]; 1000 g ai/ha,35
CCNC(=O)c1ccnc(NC(=O)c2cc(C(C)(C)C)nn2CC)c1 [Compound 152],"Plant response rating, Junglerice",junglerice; 8 g ai/ha,0
same,"Plant response rating, Junglerice",junglerice; 16 g ai/ha,0
same,"Plant response rating, Junglerice",junglerice; 32 g ai/ha,0
same,"Plant response rating, Junglerice",junglerice; 64 g ai/ha,0
same,"Plant response rating, Junglerice",junglerice; 125 g ai/ha,30
same,"Plant response rating, Sprangletop, Bearded",bearded sprangletop; 8 g ai/ha,30
same,"Plant response rating, Sprangletop, Bearded",bearded sprangletop; 16 g ai/ha,30
same,"Plant response rating, Sprangletop, Bearded",bearded sprangletop; 32 g ai/ha,30
same,"Plant response rating, Sprangletop, Bearded",bearded sprangletop; 64 g ai/ha,35
same,"Plant response rating, Sprangletop, Bearded",bearded sprangletop; 125 g ai/ha,40
same,"Plant response rating, Watergrass, Early",early watergrass; 8 g ai/ha,0
same,"Plant response rating, Watergrass, Early",early watergrass; 16 g ai/ha,0
same,"Plant response rating, Watergrass, Early",early watergrass; 32 g ai/ha,0
same,"Plant response rating, Watergrass, Early",early watergrass; 64 g ai/ha,0
same,"Plant response rating, Watergrass, Early",early watergrass; 125 g ai/ha,45
same,"Plant response rating, Sedge, Umbrella",[1]; 8 g ai/ha,0
same,"Plant response rating, Sedge, Umbrella",[1]; 16 g ai/ha,70
same,"Plant response rating, Sedge, Umbrella",[1]; 32 g ai/ha,75
same,"Plant response rating, Sedge, Umbrella",[1]; 64 g ai/ha,85
same,"Plant response rating, Sedge, Umbrella",[1]; 125 g ai/ha,95
same,"Plant response rating, Kochia",kochia; [4],0
same,"Plant response rating, Kochia","kochia; Preemergence, 125 g ai/ha, scale 0 to 100",85
same,"Plant response rating, Kochia",kochia; [5],85
same,"Plant response rating, Kochia",kochia; [6],95
same,"Plant response rating, Flatsedge, Rice",rice flatsedge; 8 g ai/ha,75
same,"Plant response rating, Flatsedge, Rice",rice flatsedge; 16 g ai/ha,75
same,"Plant response rating, Flatsedge, Rice",rice flatsedge; 32 g ai/ha,75
same,"Plant response rating, Flatsedge, Rice",rice flatsedge; 64 g ai/ha,90
same,"Plant response rating, Flatsedge, Rice",rice flatsedge; 125 g ai/ha,95
same,"Plant response rating, Watergrass, Late",late watergrass; 8 g ai/ha,0
same,"Plant response rating, Watergrass, Late",late watergrass; 16 g ai/ha,0
same,"Plant response rating, Watergrass, Late",late watergrass; 32 g ai/ha,15
same,"Plant response rating, Watergrass, Late",late watergrass; 64 g ai/ha,20
same,"Plant response rating, Watergrass, Late",late watergrass; 125 g ai/ha,40
same,"Plant response rating, Ducksalad",ducksalad; 8 g ai/ha,0
same,"Plant response rating, Ducksalad",ducksalad; 16 g ai/ha,70
same,"Plant response rating, Ducksalad",ducksalad; 32 g ai/ha,75
same,"Plant response rating, Ducksalad",ducksalad; 64 g ai/ha,80
same,"Plant response rating, Ducksalad",ducksalad; 125 g ai/ha,90
same,"Plant response rating, Rice, Water Seeded",[2]; 8 g ai/ha,0
same,"Plant response rating, Rice, Water Seeded",[2]; 16 g ai/ha,20
same,"Plant response rating, Rice, Water Seeded",[2]; 32 g ai/ha,30
same,"Plant response rating, Rice, Water Seeded",[2]; 64 g ai/ha,40
same,"Plant response rating, Rice, Water Seeded",[2]; 125 g ai/ha,45
same,"Plant response rating, Rice, Transplanted",[3]; 8 g ai/ha,0
same,"Plant response rating, Rice, Transplanted",[3]; 16 g ai/ha,20
same,"Plant response rating, Rice, Transplanted",[3]; 32 g ai/ha,25
same,"Plant response rating, Rice, Transplanted",[3]; 64 g ai/ha,40
same,"Plant response rating, Rice, Transplanted",[3]; 125 g ai/ha,45
